Measured values: patent US20100150938A1, “METHODS AND COMPOSITIONS FOR REDUCING INFLAMMATION AND TREATING INFLAMMATORY DISORDERS” (UNIVERSITY OF MASSACHUSETTS, priority 2008, published 2010)
Entries after “also recorded” stand apart in the source; their conditions may differ.

How the values were obtained:
caspase-1 [1] = test: Caspase-1 cleavage/activation in mouse macrophages (Western blot p10); format: cell-based
Procedure: (§1) Bone marrow derived macrophages were generated as described (Severa, M et al. Journal of Biological Chemistry 281:26188-26195 (2006)). Human PBMCs were isolated by from whole blood of healthy volunteers by density gradient centrifugation. Lysis of red blood cells was performed using red blood cell lysis buffer (Sigma). Experiments in PBMCs and macrophages were carried out at a cell density of 2×10^6 cells/ml. All primary cells and cell lines except THP-1 cells were cultured in DMEM supplemented with L-glutamine, ciprofloxacin (Cellgro, Manassas, Va.) and 10% fetal calf serum (Hyclone, Logan, Utah). THP-1 cells were cultured in RPMI supplemented with 10% fetal calf serum (Hyclone), L-glutamine, sodium pyruvate (Cellgro), and ciprofloxacin. One day prior to stimulation, THP-1 cells were differentiated using 0.5 μM PMA for three hours, washed three times and plated for stimulation. All experiments that were performed for Western blot analysis were carried out in serum free DMEM medium. ATP stimulations were carried out at 5 mM one hour prior to harvesting supernatants.
Cell culture supernatants were precipitated by adding an equal volume of methanol and 0.25 volumes of chloroform, vortexed and centrifuged at 20.000×g for 10 min. The upper phase was discarded and 500 μl of methanol was added to the interphase. This mixture was centrifuged at 20.000×g for 10 min and the protein pellet dried at 55° C., resuspended in Laemmli buffer and boiled at 99° C. for 5 min. Samples were separated by SDS-PAGE (15%) and transferred onto nitrocellulose membranes. As indicated, blots were incubated with rabbit polyclonal antibody to anti murine caspase-1 p10 (sc-514, Santa Cruz Biotechnology, Santa Cruz, Calif.), rabbit polyclonal anti human caspase-1 p10 (sc-515, Santa Cruz Biotechnology), rabbit polyclonal anti human cleaved IL-1β (Asp116) (Cell Signaling, Boston, Mass.) or rabbit polyclonal anti murine cathepsin B (R&D Systems, Minneapolis, Minn.).
Cell culture supernatants were precipitated by adding an equal volume of methanol and 0.25 volumes of chloroform, vortexed and centrifuged at 20,000×g for 10 min. The upper phase was discarded and 500 μl of methanol was added to the interphase. This mixture was centrifuged at 20,000×g for 10 min and the protein pellet dried at 55° C., resuspended in Laemmli buffer and boiled at 99° C. for 5 min Samples were separated by SDS-PAGE (15%) and transferred onto nitrocellulose membranes. Blots were incubated with rabbit polyclonal antibody to anti murine caspase-1 p10 (sc-514, Santa Cruz Biotechnology, Santa Cruz, Calif.).

THP-1 cells = test: Lysosomal rupturing in THP-1 cells, IL-1β release; format: cell-based, human; conditions: PMA-differentiated THP-1 cells, 4 h
Procedure: Cell culture supernatants were assayed for IL-1β using ELISA kits from BD Biosciences (Franklin Lakes, NJ) according to the manufacturer's instructions. To measure intracellular IL-1β, cells were washed and subjected to three freeze thaw cycles in assay diluent. PMA-differentiated THP-1 cells were incubated with hypertonic DMEM medium containing 10% polyethylene glycol (PEG) 1000, 1.4 M sucrose, 20 mM Hepes (pH 7.2) and 5% FCS for […] at 37° C. Cells were subsequently washed and incubated in hypotonic DMEM medium [DMEM: H2O (3:2)] for 2 min to induce lysosomal rupturing. Cells were then incubated in serum free DMEM for additional 4 hours.

caspase-1 [2] = test: Caspase-1 activation in microglia (FLICA, confocal microscopy, flow cytometry); format: cell-based, mouse; conditions: immortalized microglia, Aβ 10 μM, revAβ 10 μM, ATP 1 mM, 4 h
Procedure: For assessment of microglia-induced neurotoxicity, CAD mouse neuronal cells^47 were seeded on poly-L-lysine coated glass cover slips and grown in F12/DMEM supplemented with ciprofloxacin (Cellgro, Manassas, Va.) and 10% fetal calf serum (Hyclone, Logan, Utah) for 24 h. Differentiation was induced by withdrawal of serum for 48 h Immortalized microglia from wildtype or caspase-1^−/− mice were added in serum free medium to obtain mixed neuronal/microglial cultures and immediately stimulated. 72 h after stimulation with Aβ or media, cells were fixed, stained for the neuron-specific marker TuJ-1 and microglial marker CD11b, and imaged by confocal microscopy (Leica SP2 AOBS). Caspase-1 activity in microglial cells was assessed using the caspase-1 FLICA™ kit (Immunochemistry Technologies, Bloomington, Minn.) according to the manufacturer's instructions.
For evaluation of lysosomal damage, cells were incubated with LysoTracker green (1:2000) for 30 min and stimulated as described. Lysosomal damage was defined as loss of LysoTracker fluorescence as assessed by flow cytometry. All flow cytometry experiments were performed on an LSRII cytometer (BD Biosciences), data were acquired by DIVA software (BD Biosciences) and analyzed with FlowJo software (Tree Star Inc., Ashland, Oreg.).
IL-1β maturation is controlled by caspase-1 after assembly of the inflammasome, a multi protein complex that activates pro-caspase-1. In order to test whether Aβ activates caspase-1, we measured levels of activated caspase-1 using a fluorescent cell permeable probe (FAM-YVAD-Fmk), which covalently binds only to activated caspase-1 (Fluorescent labeled Inhibitors of Caspases, FLICA)^14. […] Similar results were obtained in primary microglial cultures (FIG. 15c).

ASC = test: ASC-CFP microglia cell line, ASC clustering; format: cell-based, mouse; conditions: LPS-primed ASC-CFP microglia, 3 h after stimulation
Excerpt: Human ASC was fused to CFP using BgIII/BamHI in pEF-BOS-CFP. Subsequently, ASC-CFP was cloned using XhoI and NotI into a modified form of FUGW (FUGW-XN). FUGW-XN was modified by replacing GFP with a novel cut site that created XhoI and NotI compatible ends upon Esp3I digestion.
Lentivirus was produced in 293T cells transfected with the FUGW based expression vector coding for ASC-CFP, lentiviral packaging plasmid containing gag, pol and rev genes (pCMV-dR8.91) and envelope plasmid (VSV-G) using TransIT-LT1 transfection reagent (Minis Bio, MIR 2300/5/6) as previously described^46. One day after transfection, medium was replaced and after one additional day of culture supernatants containing the lentivirus was removed, filtered and used to infect immortalized microglia cells.
For experiments, ASC-CFP microglial cells were seeded in duplicate into confocal dishes, stimulated as indicated. A647-labeled cholera toxin subunit B (1:1000) was added to stain cellular membranes. Cells were subsequently imaged using confocal microscopy (Leica SP2 AOBS). Cells were fixed and 5 random fields were imaged in duplicate for quantification.
First, we stably transduced microglial cell cultures with a fusion protein of ASC and cyan fluorescent protein (CFP). ASC forms large oligomers upon its activation, leading to visible changes in the cytoplasmic fluorescence pattern of ASC-CFP. […]

human PBMCs = test: IL-1β release from human PBMCs (ELISA, Western blot); format: cell-based
Procedure: as §1
(§2) Cell culture supernatants were assayed for IL-1β using ELISA kits from BD Biosciences (Franklin Lakes, NJ) according to the manufacturer's instructions. To measure intracellular IL-1β, cells were washed and subjected to three freeze thaw cycles in assay diluent.
Cell culture supernatants were precipitated by adding an equal volume of methanol and 0.25 volumes of chloroform, vortexed and centrifuged at 20.000×g for 10 min. The upper phase was discarded and 500 μl of methanol was added to the interphase. This mixture was centrifuged at 20.000×g for 10 min and the protein pellet dried at 55° C., resuspended in Laemmli buffer and boiled at 99° C. for 5 min. Samples were separated by SDS-PAGE (15%) and transferred onto nitrocellulose membranes. […]

mouse macrophages [3] = test: IL-1β release from LPS-primed mouse macrophages (bone marrow-derived, B6-MCLs), ELISA; format: cell-based; conditions: LPS-primed B6-MCLs, cytochalasin D 30 min
Procedure: as §1
Immortalized macrophage cell lines were generated using the previously described J2 recombinant retrovirus (carrying v-myc and v-raf/mil oncogenes) (Roberson, S. M. & Walker, W. S. Cellular immunology 116:341-351 (1988)). Briefly, primary bone marrow cells were incubated in L929 conditioned medium for 3-4 days to induce macrophage differentiation. Subsequently, cells were infected with J2 recombinant retrovirus. Cells were maintained in culture for 3-6 months slowly weaning off the percentage of L929 supernatant until cells were growing in the absence of conditioned medium.
Macrophage phenotype was verified by surface marker expression for CD11b and F480 as well as a range of functional parameters, including responsiveness to TLR ligands and bacterial uptake. Macrophage cell lines from wild-type (C57BL6), NALP3- and ASC-deficient mice were generated and are referred to as B6-MCLs, NALP3 -MCLs and ASC-MCLs.
as §2
(§3) Stimulations were carried out in serum free DMEM medium. Microglial cells and macrophages were primed with 100 U/ml IFNγ (Griess assay, TNF ELISA, real-time quantitative PCR) or 100 ng/ml ultrapure LPS (IL-1β ELISA, FLICA, ASC-CFP microglia cell line assay, Western blot) 1-3 h prior to stimulation with Aβ, revAβ, zymosan, ATP or transfection with dAdT.

mouse macrophages [4] = test: Crystal uptake (phagocytosis) in mouse macrophages, confocal reflection microscopy; format: cell-based; conditions: cytochalasin D 2.5 μM
Excerpt: Confocal reflection microscopy was combined with fluorescence microscopy on a Leica SP2 AOBS confocal laser scanning microscope. Reflection was captured by placing the detector channel directly over the wavelength of the selected laser channel for reflection light capture and the AOBS was set to allow 5-15% of laser light into the collection channel. Fluorescence was simultaneously captured by standard confocal imaging techniques.
To visualize the uptake of crystalline material in living cells, we devised a method to image crystals simultaneously with cellular components stained with fluorescent dyes (FIG. 8b). We used this method to study the uptake of crystals into mouse macrophages. […] The median length of silica Q6 crystals engulfed by phagocytosis was 1.65 μm (FIG. 3c).

mouse microglia [5] = test: IL-1β release from LPS-primed mouse microglia (ELISA); format: cell-based
Procedure: For primary cultures, bone marrow-derived macrophages and microglia were isolated as described^42,43 and cultured in DMEM supplemented with L-glutamine, ciprofloxacin (Cellgro, Manassas, Va.) and 10% fetal calf serum (Hyclone, Logan, Utah) Immortalized macrophage and microglial cell lines were generated using J2 recombinant retrovirus (carrying v-myc and v-raf oncogenes)^44,45. Briefly, primary bone marrow cells were incubated in L929 conditioned medium for 3-4 days to induce macrophage differentiation. Cells were then infected with J2 recombinant retrovirus and maintained in culture until cells were growing in the absence of conditioned medium. Similarly, primary mixed glial cultures were cultured until fully confluent. After two consecutive infections with J2 retrovirus, cells were maintained in normal medium until growth of microglial cells in colonies was observed. The semi-adherent colonies of microglial cells were washed off and cultured in new flasks. […] Microglial cell lines form wild type (C57/BL6), Caspase-1^−/− and IL-IR^−/− mice as well as macrophage cell lines from wild type (C57BL6), NALP3 -, IPAF- and ASC-deficient mice were generated and used for experiments as indicated.
as §3
(§4) Cell culture supernatants were assayed for IL-1β and TNFα using ELISA kits from R&D Systems (Minneapolis, Minn.) according to the manufacturer's instructions. Nitric oxide was measured by Griess reaction of nitrites accumulated in the supernatants using chemicals from Sigma.

mouse microglia [6] = test: Nitric oxide production by primed microglia (Griess reaction); format: cell-based; conditions: primed immortalized microglia, 24 h
Procedure: as §3, §4

mouse microglia [7] = test: TNF-α release from primed microglia (ELISA); format: cell-based; conditions: primed immortalized microglia, 24 h
Procedure: as §3, §4

[8] = human PBMCs pretreated with cytochalasin D
[9] = wild type immortalized microglia

Nc1ncnc2c1ncn2[C@@H]1O[C@H](COP(=O)(O)OP(=O)(O)OP(=O)(O)O)[C@@H](O)[C@H]1O [ATP]
caspase-1 cleavage induced by the stimulus (caspase-1 [1]; LPS-primed bone marrow-derived macrophages, wild-type): induced in a dose dependent way | caspase-1 cleavage (p10) induced by the stimulus (caspase-1 [1]; LPS-primed wild type bone marrow-derived macrophages, Aβ and reverse Aβ 10 μM): induced caspase-1 cleavage (p10) | IL-1β release induced by the stimulus (THP-1 cells): increased IL-1β release | caspase-1 positive microglial cells after stimulation (caspase-1 [2]): robust increase | formation of fluorescent ASC-CFP clusters (ASC): also observed

C=C1[C@@H](C)[C@H]2[C@H](Cc3ccccc3)NC(=O)[C@]23[C@H](OC(C)=O)/C=C/[C@@](C)(O)C(=O)[C@@H](C)C/C=C/[C@H]3[C@@H]1O [cytochalasin D]
IL-1β release after treatment with MSU or silica crystals, inhibitor pretreatment (human PBMCs; [8]): completely abrogated | IL-1β response to R-848 or ATP, inhibitor pretreatment (human PBMCs; [8]): unaffected | IL-1β response to ATP, inhibitor present (mouse macrophages [3]): unaffected | IL-1β release after treatment with MSU or silica crystals, inhibitor present (mouse macrophages [3]; MSU 250 μg/ml, silica 500 μg/ml): abrogated | phagocytosis of silica or MSU crystals by treated cells (mouse macrophages [4]): failed to engulf | ATP-induced IL-1β release in presence of cytochalasin D (mouse microglia [5]; [9]): no effect; also recorded: not affected | Aβ-induced IL-1β release in presence of cytochalasin D (mouse microglia [5]; [9]): strongly attenuated; also recorded: dose-dependently inhibited

COC(=O)C[C@H](NC(=O)[C@H](C)NC(=O)[C@@H](NC(=O)[C@H](Cc1ccc(O)cc1)NC(=O)OCc1ccccc1)C(C)C)C(=O)CF [z-YVAD, z-YVAD-fmk]
IL-1β response to silica crystal treatment in presence of inhibitor (human PBMCs; LPS-primed human PBMCs, silica crystals, z-YVAD, 6 h): almost completely abolished | ATP-induced IL-1β release in presence of caspase-1 inhibitor (mouse microglia [5]; primary microglia): also inhibited | Aβ-induced IL-1β release in presence of caspase-1 inhibitor (mouse microglia [5]; primary microglia): dose-dependently reduced | Aβ-induced IL-1β release in presence of caspase-1 inhibitor (mouse microglia [5]; wild type immortalized microglial cells, 6 h): dose-dependent inhibition; also recorded: significant attenuation | Aβ-induced NO production, inhibitor present (mouse microglia [6]): strongly and dose-dependently attenuated; also recorded: strongly inhibited | Aβ-induced TNF-α release, inhibitor present (mouse microglia [7]): attenuated; also recorded: inhibited
